The source of these data is US20230107941A1, “HEPATITIS B CAPSID ASSEMBLY MODULATORS” (Venatorx Pharmaceuticals, Inc., priority 2019, published 2023).

One data set has as its system HBV. Nature of the data set: In vitro antiviral assay: anti-HBV replication in HepAD38 cells (extracellular HBV DNA by QPCR). The note with it: Hepatitis B virus, HePAD38, 168 h, 7 days incubation, extracellular HBV DNA by QPCR, read-out: Anti-HBV EC50. The data set is classed as cell-based, hepatitis B virus (genotype D, serotype ayw). The method in brief: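 HepG2-derived HepAD38 cells (HBV genotype D, ayw, tet-repressible CMV) induced by tetracycline withdrawal, treated 7 days at 37 °C with compound (1 μM to 10 pM, 10-fold steps). Supernatant HBV DNA quantified by QPCR against standard curve, percent of DMSO control; EC50 by 4-parameter fit; entecavir positive control.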

The nature of data set [1]: In vitro cytotoxicity assay (MTT cell viability) in HepG2 cells. The note with it: human. The class given is cell-based, human. The method in brief: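 CC50 was derived by 4-parameter fit of viability relative to vehicle controls, measured as MTT formazan absorbance at 492 nm after 3–4 h of reagent and DMSO solubilization. Before that, HepG2 cells seeded overnight at 20,000/well were incubated 7 days at 37°C with compound from 30 μM down to 1.0 nM in half-log steps.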

Turning to `Cc1cc(NC(=O)c2c(C)c(C(=O)C(=O)NCC(C)(C)O)n(C)c2C2CCCC2)ccc1F` [Example 135, 2-cyclopentyl-N-(4-fluoro-3-methylphenyl)-5-(2-((2-hydroxy-2-methylpropyl)amino)-2-oxoacetyl)-1,4-dimethyl-1H-pyrrole-3-carboxamide], the EC50 in the data set with HBV was 50 to 499 nM. This compound came in with a CC50 at 7 days in data set [1] greater than 30000 nM.

With `Cc1c(C(=O)Nc2ccc(F)c(S(C)(=O)=O)c2)c(C)n(C)c1C(=O)C(=O)NC(C)(C)C` [Example 69, 5-(2-(tert-butylamino)-2-oxoacetyl)-N-(4-fluoro-3-(methylsulfonyl)phenyl)-1,2,4-trimethyl-1H-pyrrole-3-carboxamide], the EC50 in the data set on HBV was greater than 1000 nM. Besides, the CC50 at 7 days in data set [1] was greater than 30000 nM.

Regarding `Cc1cc(NC(=O)c2c(C)c(C(=O)C(=O)NCC(C)(C)O)n(C)c2C2CCCCC2)ccc1F` [Example 120, 2-cyclohexyl-N-(4-fluoro-3-methylphenyl)-5-(2-((2-hydroxy-2-methylpropyl)amino)-2-oxoacetyl)-1,4-dimethyl-1H-pyrrole-3-carboxamide], the EC50 with HBV was greater than 1000 nM. The CC50 at 7 days in data set [1] was greater than 30000 nM.

With `Cc1cc(NC(=O)c2c(C)c(C(=O)C(=O)NC34CC(C3)C4)n(C)c2C)ccc1F` [Example 80, 5-(2-(bicyclo[1.1.1]pentan-1-ylamino)-2-oxoacetyl)-N-(4-fluoro-3-methylphenyl)-1,2,4-trimethyl-1H-pyrrole-3-carboxamide], the EC50 with HBV is less than 50 nM. This compound returned a half-maximal cytotoxic concentration (CC50) at 7 days in data set [1] of 5000 to 30000 nM.

As for `Cc1cc(NC(=O)c2c(C)c(C(=O)C(=O)NC3(C)CCN(CC(=O)O)CC3)n(C)c2C)ccc1F` [Example 27, 2-(4-(2-(4-((4-fluoro-3-methylphenyl)carbamoyl)-1,3,5-trimethyl-1H-pyrrol-2-yl)-2-oxoacetamido)-4-methylpiperidin-1-yl)acetic acid], the EC50 in the data set with HBV lay in the range of 500 to 1000 nM. The compound also returned a CC50 at 7 days in data set [1] greater than 30000 nM.

For the compound `Cc1c(C(=O)Nc2cccc(Cl)n2)c(C)n(C)c1C(=O)C(=O)N[C@H]1CC[C@@H](O)CC1` [Example 12, N-(6-chloropyridin-2-yl)-5-(2-(((1s,4s)-4-hydroxycyclohexyl)amino)-2-oxoacetyl)-1,2,4-trimethyl-1H-pyrrole-3-carboxamide], in the data set on HBV, the EC50 lay within 50 to 499 nM. The compound also showed a CC50 at 7 days in data set [1] greater than 30000 nM.

Turning to `Cc1cc(NC(=O)c2c(C)c(C(=O)C(=O)NC3(C)CCCN(C(=O)Nc4ccc(F)c(F)c4)C3)n(C)c2C)ccc1F` (stereo not drawn) [Example 49, N-(3,4-difluorophenyl)-3-(2-(4-((4-fluoro-3-methylphenyl)carbamoyl)-1,3,5-trimethyl-1H-pyrrol-2-yl)-2-oxoacetamido)-3-methylpiperidine-1-carboxamide], the EC50 in the data set with HBV lay in the range of 50 to 499 nM. Also, the CC50 at 7 days in data set [1] is greater than 30000 nM.

`Cc1c(C(=O)Nc2ccc(F)c(F)c2)c2n(c1C(=O)C(=O)NC1(C)CCN(C(=O)Nc3ccc(F)c(F)c3)CC1)CCCC2` [Example 33, N-(3,4-difluorophenyl)-3-(2-((1-((3,4-difluorophenyl)carbamoyl)-4-methylpiperidin-4-yl)amino)-2-oxoacetyl)-2-methyl-5,6,7,8-tetrahydroindolizine-1-carboxamide]: in the data set with HBV, the concentration giving a half-maximal response (EC50) is less than 50 nM. The CC50 at 7 days in data set [1] was in the range of 500 to 4990 nM.

Consider `Cc1c(C(=O)Nc2ccc(F)c(C#N)c2)c(C)n(C)c1C(=O)C(=O)Nc1ccc(B(O)O)cc1` [Example 140, (4-(2-(4-((3-cyano-4-fluorophenyl)carbamoyl)-1,3,5-trimethyl-1H-pyrrol-2-yl)-2-oxoacetamido)phenyl)boronic acid], for which, in the data set on HBV, the EC50 is less than 50 nM. This compound also showed a CC50 at 7 days in data set [1] greater than 30000 nM.

As to `Cc1c(C(=O)Nc2ccc(F)c(C(=O)O)c2)c(C)n(C)c1C(=O)C(=O)NC(C)(C)C` [Example 56, 5-(5-(2-(tert-butylamino)-2-oxoacetyl)-1,2,4-trimethyl-1H-pyrrole-3-carboxamido)-2-fluorobenzoic acid], the EC50 in the data set on HBV is 500 to 1000 nM. In data set [1], the 50% cytotoxic concentration (CC50) at 7 days is greater than 30000 nM.

With `Cc1cc(NC(=O)c2c(C)c(C(=O)C(=O)N[C@]3(C)CC[C@H](O)CC3)n(C)c2C2CC2)ccc1F` [Example 114, 2-cyclopropyl-N-(4-fluoro-3-methylphenyl)-5-(2-(((1s,4s)-4-hydroxy-1-methylcyclohexyl)amino)-2-oxoacetyl)-1,4-dimethyl-1H-pyrrole-3-carboxamide], the EC50 in the data set with HBV was less than 50 nM. In data set [1], this compound registered a CC50 at 7 days greater than 30000 nM.

With `Cc1cc(NC(=O)c2c(C)c(C(=O)C(=O)N[C@H]3[C@H]4CC[C@H](C4)[C@H]3CO)n(C)c2C)ccc1F` [Example 21, N-(4-fluoro-3-methylphenyl)-5-(2-(((1S,2S,3R,4R)-3-(hydroxymethyl)bicyclo[2.2.1]heptan-2-yl)amino)-2-oxoacetyl)-1,2,4-trimethyl-1H-pyrrole-3-carboxamide], the concentration for a half-maximal effect (EC50) in the data set with HBV was less than 50 nM. In data set [1], this compound yielded a CC50 at 7 days greater than 30000 nM.

Turning to `Cc1cc(NC(=O)c2c(C)c(C(=O)C(=O)N[C@H]3CC[C@@H](O)CC3)n(C)c2-c2ccccn2)ccc1F` [Example 158, N-(4-fluoro-3-methylphenyl)-5-(2-(((1s,4s)-4-hydroxycyclohexyl)amino)-2-oxoacetyl)-1,4-dimethyl-2-(pyridin-2-yl)-1H-pyrrole-3-carboxamide], the EC50 with HBV is greater than 1000 nM. For the same compound, in data set [1], the CC50 at 7 days was greater than 30000 nM.

On to `Cc1cc(NC(=O)c2c(C)c(C(=O)C(=O)N[C@H]3CC[C@H](S(C)(=O)=O)CC3)n(C)c2C)ccc1F` [Example 8, N-(4-fluoro-3-methylphenyl)-1,2,4-trimethyl-5-(2-(((1r,4r)-4-(methylsulfonyl)cyclohexyl)amino)-2-oxoacetyl)-1H-pyrrole-3-carboxamide], for which the 50% effective concentration (EC50) in the data set with HBV was less than 50 nM. Moreover, the CC50 at 7 days in data set [1] is 5000 to 30000 nM.

In the case of `CCc1c(C(=O)Nc2ccc(F)c(C)c2)c(C)c(C(=O)C(=O)N[C@]2(C)C[C@H](O)C2)n1C` [Example 104, 2-ethyl-N-(4-fluoro-3-methylphenyl)-5-(2-(((1s,3s)-3-hydroxy-1-methylcyclobutyl)amino)-2-oxoacetyl)-1,4-dimethyl-1H-pyrrole-3-carboxamide], the 50% effective concentration (EC50) in the data set with HBV is less than 50 nM. Further, in data set [1], the CC50 at 7 days was greater than 30000 nM.

For the compound `Cc1cc(NC(=O)c2c(C)c(C(=O)C(=O)N[C@@H]3CC[C@H](O)CC3(C)C)n(C)c2C)ccc1F` (single isomer, unassigned) [Example 142], in the data set with HBV, the EC50 is less than 50 nM. For the same compound, the CC50 at 7 days in data set [1] is greater than 30000 nM.

As for `CC(=O)N1CCC(CO)(NC(=O)C(=O)c2c(C)c(C(=O)Nc3ccc(F)c(C)c3)c(C)n2C)CC1` [Example 72, 5-(2-((1-acetyl-4-(hydroxymethyl)piperidin-4-yl)amino)-2-oxoacetyl)-N-(4-fluoro-3-methylphenyl)-1,2,4-trimethyl-1H-pyrrole-3-carboxamide], the EC50 in the data set on HBV was less than 50 nM. The CC50 at 7 days in data set [1] was greater than 30000 nM.

Regarding `Cc1c(C(=O)Nc2ccc(F)c(F)c2)c2n(c1C(=O)C(=O)N[C@@H]1COC[C@H]1N1CCOCC1)CCCC2` [Example 37, N-(3,4-difluorophenyl)-2-methyl-3-(2-(((3S,4S)-4-morpholinotetrahydrofuran-3-yl)amino)-2-oxoacetyl)-5,6,7,8-tetrahydroindolizine-1-carboxamide], the EC50 in the data set with HBV fell in the range of 50 to 499 nM. Besides, the CC50 at 7 days in data set [1] was greater than 30000 nM.

On to `Cc1cc(NC(=O)c2c(C)c(C(=O)C(=O)NCC(C)(C)O)n(C)c2C(C)C)ccc1F` [Example 113, N-(4-fluoro-3-methylphenyl)-5-(2-((2-hydroxy-2-methylpropyl)amino)-2-oxoacetyl)-2-isopropyl-1,4-dimethyl-1H-pyrrole-3-carboxamide], for which the EC50 with HBV was 50 to 499 nM. For the same compound, the CC50 at 7 days in data set [1] is greater than 30000 nM.

With `Cc1cc(NC(=O)c2c(C)c(C(=O)C(=O)N[C@H]3CC[C@@H](S(C)(=O)=O)CC3)n(C)c2-c2nccs2)ccc1F` [Example 175, N-(4-fluoro-3-methylphenyl)-1,4-dimethyl-5-(2-(((1s,4s)-4-(methylsulfonyl)cyclohexyl)amino)-2-oxoacetyl)-2-(thiazol-2-yl)-1H-pyrrole-3-carboxamide], the EC50 in the data set on HBV was greater than 1000 nM. For the same compound, the CC50 at 7 days in data set [1] is greater than 30000 nM.

With `Cc1c(C(=O)Nc2cc(Cl)cc(Cl)c2)c(C)n(C)c1C(=O)C(=O)N[C@H](C)C(F)(F)F` [Example 79, (R)-N-(3,5-dichlorophenyl)-1,2,4-trimethyl-5-(2-oxo-2-((1,1,1-trifluoropropan-2-yl)amino)acetyl)-1H-pyrrole-3-carboxamide], the EC50 in the data set with HBV was less than 50 nM. Also, the CC50 at 7 days in data set [1] lay within 5000 to 30000 nM.

`Cc1cc(NC(=O)c2c(C)c(C(=O)C(=O)N[C@H]3CC[C@@H](O)CC3)n(C)c2C2CCCC2)ccc1F` [Example 134, 2-cyclopentyl-N-(4-fluoro-3-methylphenyl)-5-(2-(((1s,4s)-4-hydroxycyclohexyl)amino)-2-oxoacetyl)-1,4-dimethyl-1H-pyrrole-3-carboxamide]: the EC50 in the data set with HBV lay within 50 to 499 nM. In data set [1], this compound registered a CC50 at 7 days greater than 30000 nM.

Take `Cc1cc(NC(=O)c2c(C)c(C(=O)C(=O)N[C@]3(C4CC4)CC[C@@H](O)CC3)n(C)c2C)ccc1F` [Example 3, 5-(2-(((1r,4r)-1-cyclopropyl-4-hydroxycyclohexyl)amino)-2-oxoacetyl)-N-(4-fluoro-3-methylphenyl)-1,2,4-trimethyl-1H-pyrrole-3-carboxamide]: in the data set with HBV, the EC50 is less than 50 nM. This compound had a CC50 at 7 days in data set [1] greater than 30000 nM.

In the case of `Cc1cc(NC(=O)c2c(C)c(C(=O)C(=O)N[C@H]3CC[C@@H](S(C)(=O)=O)CC3)n(C)c2-c2ccccn2)ccc1F` [Example 156, N-(4-fluoro-3-methylphenyl)-1,4-dimethyl-5-(2-(((1s,4s)-4-(methylsulfonyl)cyclohexyl)amino)-2-oxoacetyl)-2-(pyridin-2-yl)-1H-pyrrole-3-carboxamide], the EC50 in the data set on HBV is greater than 1000 nM. In data set [1], this compound yielded a CC50 at 7 days greater than 30000 nM.

A word on the EC50: it is the concentration giving half of the maximal effect. The term CC50 denotes the concentration that lowers cell viability or growth by half. Read a low CC50 as harm at low concentration.
